Several values for one entry are separate records, joined by “and”; a condition that tells them apart may be missing. Equal values may be shown once. Toxic doses and inconclusive results are not listed.
Test system: L1210 leukemia ip in BDF1 mice, survival T/C
Test: NCI In Vivo Anticancer Drug Screen. Data for tumor model L1210 Leukemia (intraperitoneal) in B6D2F1 (BDF1) mice
Conditions: endpoint: mean survival time, higher = longer survival
Summary of the method: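 Ratio derived from survival: compound-dosed mice over vehicle-dosed mice, all bearing a transplantable tumor.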

[1] = dose: 100.0 mg/kg/injection, schedule: Q04DX003 (ip), vehicle: saline with Tween-80
[2] = dose: 200.0 mg/kg/injection, schedule: Q04DX003 (ip), vehicle: saline with Tween-80
[3] = dose: 50.0 mg/kg/injection, schedule: Q01DX001 (ip), vehicle: saline
[4] = dose: 50.0 mg/kg/injection, schedule: Q01DX009 (ip), vehicle: Klucel (hydroxypropylcellulose) (HPC)
[5] = dose: 100.0 mg/kg/injection, schedule: Q01DX009 (ip), vehicle: Klucel (hydroxypropylcellulose) (HPC)
[6] = dose: 200.0 mg/kg/injection, schedule: Q01DX009 (ip), vehicle: Klucel (hydroxypropylcellulose) (HPC)

## O=C1CCC(C(=O)O)N1 (centres undefined)
dose: 50.0 mg/kg/injection, schedule: Q01DX009 (ip), vehicle: saline with Tween-80
  T/C: 94 % of control
dose: 100.0 mg/kg/injection, schedule: Q01DX009 (ip), vehicle: saline with Tween-80
  T/C: 94 % of control
[1]
  T/C: 97 % of control
dose: 200.0 mg/kg/injection, schedule: Q01DX009 (ip), vehicle: saline with Tween-80
  T/C: 86 % of control
[2]
  T/C: 91 % of control

## O=C(O)c1cncc(-c2ccccc2)c1
dose: 100.0 mg/kg/injection, schedule: Q04DX002 (ip), vehicle: saline with Tween-80
  T/C: 104 % of control
dose: 200.0 mg/kg/injection, schedule: Q04DX002 (ip), vehicle: saline with Tween-80
  T/C: 111 % of control

## O=S1(=O)Cc2ccccc2-c2ccccc2C1
dose: 100.0 mg/kg/injection, schedule: Q04DX002 (ip), vehicle: gum acacia
  T/C: 103 % of control
dose: 200.0 mg/kg/injection, schedule: Q04DX002 (ip), vehicle: gum acacia
  T/C: 103 % of control
dose: 400.0 mg/kg/injection, schedule: Q04DX002 (ip), vehicle: gum acacia
  T/C: 106 % of control

## O=S(=O)(O)c1ccc(O)c2ncccc12.[Zn+2]
[3]
  T/C: 100 % of control
dose: 100.0 mg/kg/injection, schedule: Q01DX001 (ip), vehicle: saline
  T/C: 97 % of control
dose: 200.0 mg/kg/injection, schedule: Q01DX001 (ip), vehicle: saline
  T/C: 97 % of control
dose: 400.0 mg/kg/injection, schedule: Q01DX001 (ip), vehicle: saline
  T/C: 100 % of control

## C1C[S+]2CCN1CC2
[3]
  T/C: 95 % of control

## Nc1nc(CNc2ccc(Cl)cc2)nc(Nc2ccccc2)n1
[1]
  T/C: 93 % of control
[2]
  T/C: 89 % of control
dose: 400.0 mg/kg/injection, schedule: Q04DX003 (ip), vehicle: saline with Tween-80
  T/C: 89 % of control

## CC(C)(C)N
dose: 100.0 mg/kg/injection, schedule: Q04DX002 (ip), vehicle: saline
  T/C: 101 % of control
dose: 200.0 mg/kg/injection, schedule: Q04DX002 (ip), vehicle: saline
  T/C: 101 % of control
dose: 400.0 mg/kg/injection, schedule: Q04DX002 (ip), vehicle: saline
  T/C: 97 % of control

## CC(=O)OCC(OC(C)=O)C1(O)CCC2C3CCC4=CC(=O)CCC4(C)C3CCC21C (centres undefined)
[4]
  T/C: 100 % of control
[5]
  T/C: 94 % of control and 107 % of control
[6]
  T/C: 93 % of control

## NC(CSCc1ccccc1)CSCc1ccccc1
dose: 25.0 mg/kg/injection, schedule: Q01DX009 (ip), vehicle: saline
  T/C: 101 % of control
dose: 50.0 mg/kg/injection, schedule: Q01DX009 (ip), vehicle: saline
  T/C: 100 % of control
dose: 100.0 mg/kg/injection, schedule: Q01DX009 (ip), vehicle: saline
  T/C: 105 % of control

## CCSc1ncc(Br)c(Sc2nc(N)nc3nc[nH]c23)n1
dose: 1.5 mg/kg/injection, schedule: Q01DX Z (ip), vehicle: carboxymethylcellulose (CMC)
  T/C: 107 % of control
dose: 12.0 mg/kg/injection, schedule: Q01DX Z (ip), vehicle: carboxymethylcellulose (CMC)
  T/C: 150 % of control
dose: 25.0 mg/kg/injection, schedule: Q01DX001 (ip), vehicle: carboxymethylcellulose (CMC)
  T/C: 121 % of control
dose: 25.0 mg/kg/injection, schedule: Q01DX Z (ip), vehicle: methylcellulose (MC)
  T/C: 86 % of control
dose: 200.0 mg/kg/injection, schedule: Q01DX001 (ip), vehicle: carboxymethylcellulose (CMC)
  T/C: 116 % of control

## O=C(NNCc1ccccc1)C(O)C(O)C(O)CO (centres undefined)
dose: 25.0 mg/kg/injection, schedule: Q01DX009 (ip), vehicle: Klucel (hydroxypropylcellulose) (HPC)
  T/C: 93 % of control
[4]
  T/C: 96 % of control
[5]
  T/C: 104 % of control
[6]
  T/C: 94 % of control
dose: 400.0 mg/kg/injection, schedule: Q01DX009 (ip), vehicle: Klucel (hydroxypropylcellulose) (HPC)
  T/C: 103 % of control

## N#CCCN1CCCCCC1
dose: 15.0 mg/kg/injection, schedule: Q01DX009 (ip), vehicle: saline with Tween-80
  T/C: 98 % of control
dose: 30.0 mg/kg/injection, schedule: Q01DX009 (ip), vehicle: saline with Tween-80
  T/C: 95 % of control
dose: 30.0 mg/kg/injection, schedule: Q04DX003 (ip), vehicle: saline with Tween-80
  T/C: 92 % of control
dose: 60.0 mg/kg/injection, schedule: Q01DX009 (ip), vehicle: saline with Tween-80
  T/C: 104 % of control
dose: 60.0 mg/kg/injection, schedule: Q04DX003 (ip), vehicle: saline with Tween-80
  T/C: 109 % of control

## CC(C)CP(=S)(CC(C)C)CC(C)C
dose: 100.0 mg/kg/injection, schedule: Q01DX001 (ip), vehicle: saline with Tween-80
  T/C: 103 % of control
dose: 200.0 mg/kg/injection, schedule: Q01DX001 (ip), vehicle: saline with Tween-80
  T/C: 103 % of control
dose: 400.0 mg/kg/injection, schedule: Q01DX001 (ip), vehicle: saline with Tween-80
  T/C: 89 % of control

## O=c1[nH]c(=O)n(O)c2nc[nH]c12
[1]
  T/C: 92 % of control

## [O]=[Nb]
dose: 2.5 mg/kg/injection, schedule: Q01DX009 (ip), vehicle: saline with Tween-80
  T/C: 95 % of control
dose: 5.0 mg/kg/injection, schedule: Q01DX009 (ip), vehicle: saline with Tween-80
  T/C: 96 % of control
dose: 10.0 mg/kg/injection, schedule: Q01DX009 (ip), vehicle: saline with Tween-80
  T/C: 97 % of control

— PubChem BioAssay AID248 (DTP/NCI, 2004)
